Measurements as given in US6121323A, “Bishydroxyureas” (3M Innovative Properties Company, priority 1997, dated 2000).

Key:
[1] = test system: Leukotriene B4 production in whole human blood; assay: In vitro human whole blood Leukotriene B4 inhibition; assay type: cell-based; settings: A23187 stimulated, read-out: IC50 (concentration producing 50% inhibition of LTB4 production)
Protocol: IN VITRO HUMAN WHOLE BLOOD LEUKOTRIENE B4 INHIBITION
The test method described below measures the ability of compounds to inhibit the production of Leukotriene B4 in whole human blood.
Whole human blood is collected by venipuncture into a 60 cc syringe containing 100 units of heparin.
compounds are disolved in dimethyl sulfoxide. Compounds are tested at concentrations of 100, 33, 11, 3.7, 1.2 and 0.41 μM. Each concentration is tested in duplicate.
Aliquots (1 μL) of compound solution are added to 1 mL polyethylene tubes followed by the addition of 500 μL portion of heparinized blood. The tubes are mixed thoroughly then allowed to preincubate at ambient temperature for 15 minutes. A 25 μL portion of 1 mM Calcium Ionophore A23187 in dimethyl sulfoxide/Tris buffer is added to the tubes. The tubes are mixed thoroughly then incubated at 37° C. for 30 minutes.
The tubes are centrifuged at 2000 rpm for 10 minutes. 100 μL portions of plasma are transferred to 1 mL polyethylene tubes containing 400 μL portions of methanol. The tubes are vortexed then frozen at -20° C. overnight.
The tubes are centrifuged for 10 minutes then 100 μL portions of methanol supernatant are transferred to a 96 well microtiter plate. 10 μL portions are transferred from this plate to a 96 well assay plate. Methanol dilutions of LTB4 standard curve are added to the assay plate. 10 μL portions of blank methanol/plasma supernatant are added to each standard curve well. The assay plate is vacuum dried at ambient temperature. The radioimmunoassay buffer is added, the plate is bath-sonicated for 5 minutes then assayed according to the manufacturer's instructions (Advanced Magnetics; Cambridge, Mass.). Inhibition of LTB4 production is calculated as the ratio of the amount of LTB4 formed in the presence (LTB4 +cpd) and absence (LTB4 no cpd) of compound according the equation below. [formula] IC50 values (concentration of compound producing a 50% inhibition of LTB4 production) are calculated by linear regression analysis of percentage inhibition versus log compound concentration plots.

[2] = test system: Leukotriene C4 production in mouse peritoneal macrophages; assay: In vitro mouse peritoneal macrophage Leukotriene C4 inhibition; assay type: cell-based; settings: zymosan stimulated, read-out: Percent Inhibition
Protocol: IN VITRO MOUSE PERITONEAL MACROPHAGE LEUKOTRIENE C4 INHIBITION
The test described below measures the ability of compounds to inhibit the production of Leukotriene C4 in mouse peritoneal macrophages.
Mice (female, CD-1, weighing 25 g) are euthanized by exposure to carbon dioxide. The pertoneal cavity is exposed by peeling back the abdominal skin. A 5 mL portion of media (M199 containing 1% fetal bovine serum, 100 units/mL of penicillin, 100 μg/mL streptomycin, 20 units/mL of heparin and no glutamine) is injected into the exposed peritoneal cavity of each mouse. The lavage fluid is removed and pooled to yield proximately 1×10^6 macrophages/mL. A 2 mL portion of lavage fluid is added to each well of a 24 well sterile multidish and the marcophages are allowed to adhere to the plate for 2 hours at 37° C. in a 5% carbon dioxide atmosphere. The media is removed and each well is washed with 2 mL of phosphate buffered saline (PBS). A 1 mL portion of media, without heparin, but containing 5 μCi/mL of 3H-myoinositol is added to each well and the plates are incubated overnight at 37° C. in a 5% carbon dioxide atmosphere. The media is removed and the cells are washed twice with 2 mL portions of PBS. A 1 mL portion of Puck's saline formulation A containing 1 mM calcium chloride, 1 mM magnesium chloride and 10 mM lithium chloride is added to each well. (The Puck's formulation is made first as a 10× solution which contains 4 g of potassium chloride, 80 g of sodium chloride and 10 g of glucose per liter. The Puck's saline formulation A is made using 10 mL of the 10× Puck's formulation, 0.47 mL of 7.5% sodium bicarbonate and 2 mL of 1M N-2-hydroxyethylpiperazine-N'-2-ethanesulfonic acid per 100 mL.)
Compounds are dissolved in dimethyl sulfoxide. Compounds are tested at concentrations of 10, 1 and 0.1 μM. Each concentration is tested in duplicate.
A 1 μL portion of compound solution or vehicle (DMSO) is added to each well and the plates are incubated for 15 minutes at 37° C. in a 5% carbon dioxide atmosphere. Zymosan is then added to provide a final concentration of 50 μg/mL in each well and the plate is incubated for 1 to 2 hours at 37° C. in a 5% carbon dioxide atmosphere.
Following incubation 200 μL portions of media are transferred to 12×75 mm tubes. The tubes are either assayed immediately or stored at -20° C. until they can be assayed.
The media is assayed for the presence of Leukotriene C4 by radioimmunoassay which is performed according to the manufacturer's instructions (Advanced Magnetics; Cambridge, Mass.). Inhibition of LTC4 production is calculated as the ratio of the amount of LTC4 formed in the presence (LTC4 +cpd) and absence (LTC4 no cpd)of compound according to the equation below. [formula] IC50 values (concentration of compound producing a 50% inhibition of LTC4 production) are calculated by linear regression analysis of percentage inhibition versus log compound concentration plots.

[3] = test system: Leukotriene B4 production in rat blood; assay: Rat ex vivo Leukotriene B4 inhibition; assay type: in vivo; settings: 2 hours post dose, ex vivo A23187 challenge; for inhibition in vivo at 50 mg/kg: 50 mg/Kg oral
Protocol: RAT EX VIVO LEUKOTRIENE B4 INHIBITION
The test method described below measures the ability of a compound when administrated orally to rats to inhibit the production of Leukotriene B4 in their blood which is drawn and challenged.
Rats (CD, male, non-fasted, 250 g) are lightly anesthetized with carbon dioxide and an approximately 0.75 mL sample of whole blood is obtained via cardiac puncture. The sample is dispensed into 12×75 mm polypropylene tubes containing 8-10 μL of 10,000 units/mL heparin, mixed and then maintained on ice. The rats are allowed to recover approximately one hour then dosed orally with compound dissolved in PEG 400 at a 5 mL/Kg volume. Five (5) rats are utilized per group. Two (2) hours post dose the rats are again anesthetized with carbon dioxide and the blood sampled again via cardiac puncture.
Duplicate 200 μL portions of blood are added to 1.0 mL polypropylene tubes. A 10 μL portion of 1 mM A23 187 Calcium Ionophore in dimethyl sulfoxide/Tris buffer is added to each tube. The tubes are gently vortexed then incubated in a 37° C. water bath for 30 minutes. The tubes are then centrifuged at 4000 rpm for 10 minutes. 50 μL portions of plasma are transferred to 1.0 mL tubes containing 200 μL of methanol. The tubes are vortexed then placed in the freezer overnight.
The tubes are removed from the freezer then centrifuged at 4000 rpm for 10 minutes. 20 μL portions of the methanol/plasma supernatant and 10 μl methanol dilutions of LTB4 standard are transferred to 96 well v-bottom microtiter plates. The plates are vacuum dried at 40° C. A 40 μL portion of LTB4 radioimmunoassay buffer is added to each well. The plate is bath sonicated for 5 minutes then assayed according to the manufacturer's instructions (Advanced Magnetics; Cambridge, Mass.). Percent inhibition values are obtained by comparing the level of LTB4 in the post-dose samples to the level in the pre-dose samples according to the equation below. [formula]

For `CN(O)C(=O)Nc1ccc(Cc2ccc(NC(=O)N(C)O)cc2)cc1` [Example 1, 4,4'-Methylenebis(1-hydroxy-1-methyl-3-phenylurea)], the IC50 [1] was 0.55 µM, the inhibition at 0.1 µM [2] was 61% and the inhibition at 1 µM [2] was 95%. The inhibition at 10 µM [2] was 100%, the inhibition in vivo at 10 mg/kg ([3]; 10 mg/Kg oral) was 16% and the inhibition in vivo at 50 mg/kg [3] was 93%.
In the case of `CC(C)N(O)C(=O)Nc1ccc(Cc2ccc(NC(=O)N(O)C(C)C)cc2)cc1` [Example 2, 4,4'-Methylenebis(1-hydroxy-1-isopropyl-3-phenylurea)], the IC50 [1] is reported as 1.7 µM, the inhibition at 0.1 µM [2] is reported as 32% and the inhibition at 1 µM [2] is reported as 55%. For the same compound, the inhibition at 10 µM [2] was 54% and the inhibition in vivo at 50 mg/kg [3] was 34%.
`O=C(Nc1ccc(Cc2ccc(NC(=O)N(O)Cc3ccccc3)cc2)cc1)N(O)Cc1ccccc1` [Example 3, 4,4'-Methylenebis(1-hydroxy-1-benzyl-3-phenylurea)] was tested, and the IC50 [1] was 0.32 µM, the inhibition at 0.1 µM [2] was 25% and the inhibition at 1 µM [2] was 56%. The inhibition at 10 µM [2] was 74% and the inhibition in vivo at 50 mg/kg [3] was 6%.
`CCC(CC)N(O)C(=O)Nc1ccc(Cc2ccc(NC(=O)N(O)C(CC)CC)cc2)cc1` [Example 12, 4,4'-Methylenebis(1-hydroxy-1-(1-ethylpropyl)-3-phenylurea)] was tested, and the inhibition at 0.1 µM [2] was 83%, the inhibition at 1 µM [2] was 93% and the inhibition at 10 µM [2] was 100%. For the same compound, the inhibition in vivo at 50 mg/kg [3] was 15%.
